This note sets out measurements from patent US10988477B2 (Merck Patent GmbH, priority 2018, dated 2021).

The target of one assay is GCN2 kinase (Homo sapiens, UniProt Q9P2K8). In words: GCN2 enzyme inhibition assay (Transcreener ADP2 fluorescence polarization). The class given is biochemical. The note with it: compounds of Formula II; 280 μM ATP, 4 nM GCN2 kinase. The procedure, abridged: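 Inhibition of 4 nM GCN2 was measured with compound up to 8 μM final, ATP 280 μM and (RS)7 peptide 200 μM over a 1 h, 25 °C reaction. ADP FP readout; IC50 and Ki(app) calculated from percent inhibition.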
A general note: Fluorescence polarisation rises when a labelled molecule tumbles more slowly, as on binding a larger partner.

Assay [1] deals with intracellular GCN2 (phosphorylation of the GCN2 substrate eIF2α) (Homo sapiens, UniProt Q9P2K8). In words: GCN2 cellular inhibition assay (AlphaScreen SureFire P-eIF2α Ser51, borrelidin-treated U2OS cells). The class given is cell-based. The note with it: compounds of Formula II; biomarker assay, phosphorylated eIF2α Ser51 in borrelidin-treated U2OS cells. The procedure, abridged: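 Phospho-eIF2α (Ser51) in lysates was quantified by AlphaScreen SureFire after a 1 h, 37 °C treatment of U2OS cells with 10 μM borrelidin and compound at 4-fold dilutions starting from 40 μM final. Inhibition expressed in percent against wells stimulated by borrelidin alone.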
(In general: Bead proximity is the source of the signal in Alpha formats.)

What is called pKi is the negative decadic logarithm of the Ki, by convention in mol/L. A low value points to a large Ki. Broadly, the pIC50 is −log10 of the IC50, conventionally taken in molar units. A high value points to a low IC50.

The structures appear in SMILES notation. pIC50, pKi: −log10 of the molar value.

Chain of GCN2 kinase (Q9P2K8 whole entry): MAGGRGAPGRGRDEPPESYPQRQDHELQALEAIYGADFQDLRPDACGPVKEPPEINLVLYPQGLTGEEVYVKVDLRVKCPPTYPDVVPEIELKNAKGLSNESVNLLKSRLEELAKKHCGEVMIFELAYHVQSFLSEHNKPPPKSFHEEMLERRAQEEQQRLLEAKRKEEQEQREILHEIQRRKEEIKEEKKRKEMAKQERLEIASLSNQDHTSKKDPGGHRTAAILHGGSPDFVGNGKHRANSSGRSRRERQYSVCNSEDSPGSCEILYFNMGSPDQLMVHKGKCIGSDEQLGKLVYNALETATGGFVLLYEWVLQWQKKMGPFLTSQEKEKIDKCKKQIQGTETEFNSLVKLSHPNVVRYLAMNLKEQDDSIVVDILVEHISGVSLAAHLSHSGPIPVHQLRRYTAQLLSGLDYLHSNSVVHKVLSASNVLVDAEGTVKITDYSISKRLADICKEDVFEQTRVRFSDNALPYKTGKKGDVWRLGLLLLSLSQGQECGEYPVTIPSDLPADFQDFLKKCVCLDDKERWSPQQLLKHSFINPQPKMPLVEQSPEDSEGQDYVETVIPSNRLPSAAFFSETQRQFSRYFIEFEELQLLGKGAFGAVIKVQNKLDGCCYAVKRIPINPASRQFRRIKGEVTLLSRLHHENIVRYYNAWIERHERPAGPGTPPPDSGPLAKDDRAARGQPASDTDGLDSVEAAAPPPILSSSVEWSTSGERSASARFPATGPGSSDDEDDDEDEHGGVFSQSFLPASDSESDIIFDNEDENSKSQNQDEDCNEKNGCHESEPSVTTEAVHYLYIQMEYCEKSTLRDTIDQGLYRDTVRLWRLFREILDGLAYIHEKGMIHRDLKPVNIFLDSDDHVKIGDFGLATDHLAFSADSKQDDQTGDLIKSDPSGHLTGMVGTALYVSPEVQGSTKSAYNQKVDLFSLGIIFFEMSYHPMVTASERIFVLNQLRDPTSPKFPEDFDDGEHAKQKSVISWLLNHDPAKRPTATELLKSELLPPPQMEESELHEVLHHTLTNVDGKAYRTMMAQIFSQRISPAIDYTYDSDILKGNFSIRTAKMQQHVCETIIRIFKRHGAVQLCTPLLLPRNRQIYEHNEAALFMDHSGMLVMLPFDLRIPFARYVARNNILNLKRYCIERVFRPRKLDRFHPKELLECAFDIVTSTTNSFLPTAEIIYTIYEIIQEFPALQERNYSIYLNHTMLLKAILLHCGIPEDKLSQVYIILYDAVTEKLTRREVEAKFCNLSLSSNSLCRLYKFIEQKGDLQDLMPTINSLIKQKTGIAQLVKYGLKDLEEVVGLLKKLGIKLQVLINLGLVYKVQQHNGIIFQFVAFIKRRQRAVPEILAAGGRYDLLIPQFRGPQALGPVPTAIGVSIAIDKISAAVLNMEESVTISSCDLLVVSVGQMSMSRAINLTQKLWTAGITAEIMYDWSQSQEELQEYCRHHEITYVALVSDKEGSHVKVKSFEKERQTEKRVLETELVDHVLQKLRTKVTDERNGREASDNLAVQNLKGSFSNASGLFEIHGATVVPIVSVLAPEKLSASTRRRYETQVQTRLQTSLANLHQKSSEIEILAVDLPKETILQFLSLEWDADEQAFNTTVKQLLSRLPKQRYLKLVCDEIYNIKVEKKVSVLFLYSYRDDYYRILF
Chain of intracellular GCN2 (phosphorylation of the GCN2 substrate eIF2α) (Q9P2K8 whole entry): as above

For the molecule `NS(=O)(=O)NCC1CCN(c2cc(-c3cnc4ccc(C(F)F)nn34)ncn2)C1` (stereo not shown) [II-415, 1-((1-(6-(6-(Difluoromethyl)imidazo[1,2-b]pyridazin-3-yl)pyrimidin-4-yl)pyrrolidin-3-yl)methyl)sulfuric diamide], the pKi on GCN2 kinase is 6.00 to 8.00. The pIC50 in assay [1] is < 5.30.
The corresponding values for `CC1CN(c2cc(-c3cnc4ccc(C(F)F)nn34)ncn2)CC(CNS(C)(=O)=O)N1C` (stereo not shown) [II-418, N-((4-(6-(6-(Difluoromethyl)imidazo[1,2-b]pyridazin-3-yl)pyrimidin-4-yl)-1,6-dimethylpiperazin-2-yl)methyl)methanesulfonamide] are 6.00 to 8.00 and 5.30 to 6.30.
The corresponding values for `O=S(=O)(N[C@H]1CCCN(c2cc(-c3cnc4ccc(C(F)F)nn34)ncn2)C1)C1COC1` [II-419, (S)—N-(1-(6-(6-(Difluoromethyl)imidazo[1,2-b]pyridazin-3-yl)pyrimidin-4-yl)piperidin-3-yl)oxetane-3-sulfonamide] are 6.00 to 8.00 and 5.30 to 6.30.
The corresponding values for `O=S(=O)(CC1CC1)N[C@H]1CCCN(c2cc(-c3cnc4ccc(C(F)F)nn34)ncn2)C1` [II-420, (S)-1-Cyclopropyl-N-(1-(6-(6-(difluoromethyl)imidazo[1,2-b]pyridazin-3-yl)pyrimidin-4-yl)piperidin-3-yl)methanesulfonamide] are 6.00 to 8.00 and 5.30 to 6.30.
Turning to `CCS(=O)(=O)N[C@H]1CCCN(c2cc(-c3cnc4ccc(C(F)F)nn34)ncn2)C1` [II-421, (S)—N-(1-(6-(6-(Difluoromethyl)imidazo[1,2-b]pyridazin-3-yl)pyrimidin-4-yl)piperidin-3-yl)ethanesulfonamide], at GCN2 kinase, the negative-log Ki (pKi) was 6.00 to 8.00. In assay [1], this molecule showed a pIC50 of 5.30 to 6.30.
The corresponding values for `CNS(=O)(=O)N[C@H]1CCCN(c2cc(-c3cnc4ccc(C(F)F)nn34)ncn2)C1` [II-422, (S)-1-(1-(6-(6-(Difluoromethyl)imidazo[1,2-b]pyridazin-3-yl)pyrimidin-4-yl)piperidin-3-yl)-3-methylsulfuric diamide] are 6.00 to 8.00 and > 6.30.
The corresponding values for `CC1CN(C)C(CNS(C)(=O)=O)CN1c1cc(-c2cnc3ccc(C(F)F)nn23)ncn1` (stereo not shown) [II-423, N-((4-(6-(6-(Difluoromethyl)imidazo[1,2-b]pyridazin-3-yl)pyrimidin-4-yl)-1,5-dimethylpiperazin-2-yl)methyl)methanesulfonamide] are 6.00 to 8.00 and < 5.30.
The corresponding values for `CC1C(CS(N)(=O)=O)CCCN1c1cc(-c2cnc3ccc(C(F)F)nn23)ncn1` (stereo not shown) [II-424, (1-(6-(6-(Difluoromethyl)imidazo[1,2-b]pyridazin-3-yl)pyrimidin-4-yl)-2-methylpiperidin-3-yl)methanesulfonamide] are > 8.00 and > 6.30.
Take `CC1C(CS(C)(=N)=O)OCCN1c1cc(-c2cnc3ccc(C(F)F)nn23)ncn1` (stereo not shown) [II-425, ((4-(6-(6-(Difluoromethyl)imidazo[1,2-b]pyridazin-3-yl)pyrimidin-4-yl)-3-methylmorpholin-2-yl)methyl)(imino)(methyl)-λ^6-sulfanone]: the pKi at GCN2 kinase was 6.00 to 8.00. The negative-log IC50 (pIC50) in assay [1] was 5.30 to 6.30.
The corresponding values for `CC1C(CS(C)(=O)=O)OCCN1c1cc(-c2cnc3ccc(C(F)F)nn23)ncn1` (stereo not shown) [II-426, 4-(6-(6-(Difluoromethyl)imidazo[1,2-b]pyridazin-3-yl)pyrimidin-4-yl)-3-methyl-2-((methylsulfonyl)methyl)morpholine] are 6.00 to 8.00 and 5.30 to 6.30.
The corresponding values for `CC1CN(c2cc(-c3cnc4ccc(C(F)F)nn34)ncn2)C(C)C(CNS(C)(=O)=O)N1` (stereo not shown) [II-427, N-((4-(6-(6-(Difluoromethyl)imidazo[1,2-b]pyridazin-3-yl)pyrimidin-4-yl)-3,6-dimethylpiperazin-2-yl)methyl)methanesulfonamide] are > 8.00 and > 6.30.
The corresponding values for `CS(=O)(=O)NCC1CC(N2CC(F)C2)CN(c2cc(-c3cnc4ccc(C(F)F)nn34)ncn2)C1` (stereo not shown) [II-428, N-((1-(6-(6-(Difluoromethyl)imidazo[1,2-b]pyridazin-3-yl)pyrimidin-4-yl)-5-(3-fluoroazetidin-1-yl)piperidin-3-yl)methyl)methanesulfonamide] are 6.00 to 8.00 and < 5.30.
Consider `CS(=O)(=O)NCC1CC(N2CC(F)C2)CN(c2cc(-c3cnc4ccc(C(F)F)nn34)ncn2)C1` (stereo not shown) [II-429, N-((1-(6-(6-(Difluoromethyl)imidazo[1,2-b]pyridazin-3-yl)pyrimidin-4-yl)-5-(3-fluoroazetidin-1-yl)piperidin-3-yl)methyl)methanesulfonamide], for which, at GCN2 kinase, the pKi was 6.00 to 8.00. The pIC50 in assay [1] was < 5.30.
The corresponding values for `CS(=O)(=O)CC1CCCN(c2cc(-c3cnc4ccc(C(F)F)nn34)ncn2)C1` (stereo not shown) [II-430, 6-(Difluoromethyl)-3-(6-(3-((methylsulfonyl)methyl)piperidin-1-yl)pyrimidin-4-yl)imidazo[1,2-b]pyridazine] are 6.00 to 8.00 and 5.30 to 6.30.
In the case of `CC1C(CNS(C)(=O)=O)C(F)(F)CCN1c1cc(-c2cnc3ccc(C(F)F)nn23)ncn1` (stereo not shown) [II-431, N-((1-(6-(6-(Difluoromethyl)imidazo[1,2-b]pyridazin-3-yl)pyrimidin-4-yl)-4,4-difluoro-2-methylpiperidin-3-yl)methyl)methanesulfonamide], on GCN2 kinase, the negative logarithm of the Ki (pKi) is > 8.00. For the same molecule, the pIC50 in assay [1] is > 6.30.
The corresponding values for `CC1C(CNS(C)(=O)=O)C(F)(F)CCN1c1cc(-c2cnc3ccc(C(F)F)nn23)ncn1` (stereo not shown) [II-432, N-((1-(6-(6-(Difluoromethyl)imidazo[1,2-b]pyridazin-3-yl)pyrimidin-4-yl)-4,4-difluoro-2-methylpiperidin-3-yl)methyl)methanesulfonamide] are > 8.00 and > 6.30.
Regarding `CC1CC(F)(F)C(CNS(C)(=O)=O)CN1c1cc(-c2cnc3ccc(C(F)F)nn23)ncn1` (stereo not shown) [II-433, N-((1-(6-(6-(Difluoromethyl)imidazo[1,2-b]pyridazin-3-yl)pyrimidin-4-yl)-4,4-difluoro-6-methylpiperidin-3-yl)methyl)methanesulfonamide], the negative-log Ki (pKi) at GCN2 kinase was > 8.00. Further, the pIC50 in assay [1] is > 6.30.
The corresponding values for `CC1CC(F)(F)C(CNS(C)(=O)=O)CN1c1cc(-c2cnc3ccc(C(F)F)nn23)ncn1` (stereo not shown) [II-434, N-((1-(6-(6-(Difluoromethyl)imidazo[1,2-b]pyridazin-3-yl)pyrimidin-4-yl)-4,4-difluoro-6-methylpiperidin-3-yl)methyl)methanesulfonamide] are 6.00 to 8.00 and < 5.30.
With `O=S(=O)(N[C@H]1CCCN(c2cc(-c3cnc4ccc(C(F)F)nn34)ncn2)C1)C1CNC1` [II-435, (S)—N-(1-(6-(6-(Difluoromethyl)imidazo[1,2-b]pyridazin-3-yl)pyrimidin-4-yl)piperidin-3-yl)azetidine-3-sulfonamide], at GCN2 kinase, the negative-log Ki (pKi) is 6.00 to 8.00. Further, the pIC50 in assay [1] is < 5.30.
The corresponding values for `OCC12CC1CN(c1cc(-c3cnc4ccc(C(F)F)nn34)ncn1)C2` (stereo not shown) [II-438, (3-(6-(6-(Difluoromethyl)imidazo[1,2-b]pyridazin-3-yl)pyrimidin-4-yl)-3-azabicyclo[3.1.0]hexan-1-yl)methanol] are 6.00 to 8.00 and 5.30 to 6.30.
The corresponding values for `CS(=O)(=O)NC1(C2CCN(c3cc(-c4cnc5ccc(C(F)F)nn45)ncn3)C2)CC1` (stereo not shown) [II-439, N-(1-(1-(6-(6-(Difluoromethyl)imidazo[1,2-b]pyridazin-3-yl)pyrimidin-4-yl)pyrrolidin-3-yl)cyclopropyl)methanesulfonamide] are 6.00 to 8.00 and 5.30 to 6.30.
The corresponding values for `CS(=O)(=O)NCC1CN(c2cc(-c3cnc4ccc(C(F)F)nn34)ncn2)CC(C2CC2)O1` (stereo not shown) [II-440, N-((6-Cyclopropyl-4-(6-(6-(difluoromethyl)imidazo[1,2-b]pyridazin-3-yl)pyrimidin-4-yl)morpholin-2-yl)methyl)methanesulfonamide] are 6.00 to 8.00 and 5.30 to 6.30.
Consider `CS(=O)(=O)NCC1CN(c2cc(-c3cnc4ccc(C(F)F)nn34)ncn2)CC(C2CC2)O1` (stereo not shown) [II-441, N-((6-Cyclopropyl-4-(6-(6-(difluoromethyl)imidazo[1,2-b]pyridazin-3-yl)pyrimidin-4-yl)morpholin-2-yl)methyl)methanesulfonamide], for which, on GCN2 kinase, the negative-log Ki (pKi) was 6.00 to 8.00. In addition, the negative logarithm of the IC50 (pIC50) in assay [1] was 5.30 to 6.30.
For `O=S(=O)(N[C@H]1CCCN(c2cc(-c3cnc4ccc(C(F)F)nn34)ncn2)C1)C1CC1` [II-442, (S)—N-(1-(6-(6-(Difluoromethyl)imidazo[1,2-b]pyridazin-3-yl)pyrimidin-4-yl)piperidin-3-yl)cyclopropanesulfonamide], at GCN2 kinase, the negative-log Ki (pKi) is 6.00 to 8.00. Besides, in assay [1], the pIC50 was < 5.30.
The corresponding values for `CS(=O)(=O)NCC1CN(c2cc(-c3cnc4ccc(C(F)F)nn34)ncn2)CC(C2CC2)O1` (stereo not shown) [II-443, N-((6-Cyclopropyl-4-(6-(6-(difluoromethyl)imidazo[1,2-b]pyridazin-3-yl)pyrimidin-4-yl)morpholin-2-yl)methyl)methanesulfonamide] are > 8.00 and > 6.30.
For the molecule `CS(=O)(=O)NCC1CN(c2cc(-c3cnc4ccc(C(F)F)nn34)ncn2)CC(C2CC2)O1` (stereo not shown) [II-444, N-((6-Cyclopropyl-4-(6-(6-(difluoromethyl)imidazo[1,2-b]pyridazin-3-yl)pyrimidin-4-yl)morpholin-2-yl)methyl)methanesulfonamide], the pKi on GCN2 kinase is > 8.00. The negative logarithm of the IC50 (pIC50) in assay [1] is > 6.30.
